From PubChem BioAssay (NCI)
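Assay format: 96-well plates, 48-hour exposure. TGI denotes the concentration required for complete inhibition of growth.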

Key:
Experiment in all cases: DTP human tumour cell line panel, 48 h
[1] = test system: SF-295 CNS
[2] = test system: ACHN renal
[3] = test system: CAKI-1 renal
[4] = test system: A498 renal
[5] = test system: T-47D breast
[6] = test system: PC-3 prostate
[7] = test system: OVCAR-3 ovarian
[8] = test system: SF-268 CNS
[9] = test system: A549 NSCLC
[10] = test system: HOP-92 NSCLC

Structure (SMILES): C=CCN1CC2CN=NC2(C#N)C1 (stereo not given)
- TGI [1]: > 100 µM
- TGI [2]: > 100 µM
- TGI [3]: > 100 µM
- TGI [4]: > 100 µM
- TGI [5]: > 100 µM
- TGI [6]: > 100 µM
- TGI [7]: > 100 µM
- TGI [8]: > 100 µM
- TGI [9]: > 100 µM

Structure (SMILES): O=C1CCC2=C(CCC2)N1CCc1ccc2c(c1)OCO2
- TGI [1]: > 100 µM
- TGI [2]: > 100 µM
- TGI [3]: > 100 µM
- TGI [5]: > 100 µM
- TGI [6]: > 100 µM
- TGI [8]: > 100 µM
- TGI [9]: > 100 µM

Structure (SMILES): C=C(C)CC1=C(C(=S)NCCO[Si](C)(C)C(C)(C)C)C(OCC)(OCC)C1=O
- TGI [1]: 33.1 µM
- TGI [2]: 33.8 µM
- TGI [3]: 31.9 µM
- TGI [4]: 40.5 µM
- TGI [5]: 35.4 µM
- TGI [6]: 29.4 µM
- TGI [8]: 47.4 µM
- TGI [10]: > 100 µM
- TGI [9]: 36.9 µM

Structure (SMILES): CC(/C=N/NC1=NCCCCN1)=N\NC1=NCCCCN1
- TGI [1]: > 100 µM
- TGI [2]: > 100 µM
- TGI [3]: > 100 µM
- TGI [5]: > 100 µM
- TGI [6]: > 100 µM
- TGI [7]: > 100 µM
- TGI [8]: > 100 µM
- TGI [10]: > 100 µM
- TGI [9]: > 100 µM

Structure (SMILES): N=C(N)n1[nH]c2c(c1=O)CCC2
- TGI [1]: > 100 µM
- TGI [2]: > 100 µM
- TGI [3]: > 100 µM
- TGI [6]: > 100 µM
- TGI [7]: > 100 µM
- TGI [8]: > 100 µM
- TGI [10]: > 100 µM
- TGI [9]: > 100 µM

Structure (SMILES): CCOC(=O)/C=C(/C(=O)OCC)n1c(=O)c(C)cn(C2CC(N=[N+]=[N-])C(CO)O2)c1=O (stereo not given)
- TGI [1]: > 100 µM
- TGI [2]: > 100 µM
- TGI [3]: 83.9 µM
- TGI [4]: > 100 µM
- TGI [5]: > 100 µM
- TGI [6]: 32.8 µM
- TGI [7]: 50.3 µM
- TGI [8]: > 100 µM
- TGI [10]: 76.6 µM
- TGI [9]: > 100 µM

Structure (SMILES): Cc1ccnc(NC(=S)Nc2ccccc2Cl)c1
- TGI [1]: > 100 µM
- TGI [3]: > 100 µM
- TGI [4]: > 100 µM
- TGI [5]: > 100 µM
- TGI [6]: > 100 µM
- TGI [7]: > 100 µM
- TGI [8]: > 100 µM
- TGI [9]: > 100 µM

Structure (SMILES): O=C(NCCO)c1c(O)c2ccccc2[nH]c1=O
- TGI [1]: > 100 µM
- TGI [2]: > 100 µM
- TGI [3]: > 100 µM
- TGI [4]: > 100 µM
- TGI [6]: > 100 µM
- TGI [7]: > 100 µM
- TGI [8]: > 100 µM
- TGI [10]: > 100 µM
- TGI [9]: > 100 µM

Structure (SMILES): CC(O)(c1ccccc1)c1nccc2ccccc12 (stereo not given)
- TGI [1]: > 100 µM
- TGI [2]: > 100 µM
- TGI [3]: > 100 µM
- TGI [4]: > 100 µM
- TGI [5]: > 100 µM
- TGI [6]: > 100 µM
- TGI [7]: > 100 µM
- TGI [8]: > 100 µM
- TGI [10]: 95.2 µM
- TGI [9]: > 100 µM

Structure (SMILES): O=C1c2ccccc2C(=O)N1C(=S)c1ccccc1
- TGI [1]: > 100 µM
- TGI [2]: > 100 µM
- TGI [3]: > 100 µM
- TGI [5]: > 100 µM
- TGI [6]: > 100 µM
- TGI [7]: > 100 µM
- TGI [8]: > 100 µM
- TGI [10]: > 100 µM
- TGI [9]: > 100 µM

Structure (SMILES): CCCCNC(=S)/N=C/c1c(O)c2ccccc2oc1=O
- TGI [1]: > 100 µM
- TGI [2]: > 100 µM
- TGI [3]: > 100 µM
- TGI [5]: > 100 µM
- TGI [6]: > 100 µM
- TGI [7]: > 100 µM
- TGI [10]: > 100 µM
- TGI [9]: > 100 µM

Structure (SMILES): O=C(c1ccc(Cl)cc1)N(C(=S)N1CCN(c2ccccn2)CC1)c1ccccc1
- TGI [1]: > 100 µM
- TGI [2]: > 100 µM
- TGI [3]: > 100 µM
- TGI [7]: > 100 µM
- TGI [8]: > 100 µM
- TGI [10]: > 100 µM
- TGI [9]: > 100 µM

Structure (SMILES): C=CCC1NCCC2=C1C(S(=O)(=O)c1ccc(C)cc1)c1ccccc12 (stereo not given)
- TGI [1]: 27.1 µM
- TGI [2]: 24.3 µM
- TGI [3]: 19.6 µM
- TGI [4]: 33.2 µM
- TGI [5]: 26.1 µM
- TGI [6]: 22.2 µM
- TGI [7]: 26 µM
- TGI [8]: 34.7 µM
- TGI [10]: 25.7 µM
- TGI [9]: 29.2 µM

Structure (SMILES): O=[N+]([O-])c1cccc2nc3ccccc3c(NCCC[N+]3([O-])CCCCC3)c12
- TGI [1]: 12.6 µM
- TGI [2]: 47.5 µM
- TGI [3]: > 100 µM
- TGI [4]: 2.47 µM
- TGI [5]: 4.9 µM
- TGI [6]: 0.649 µM
- TGI [7]: 0.852 µM
- TGI [8]: 2.22 µM
- TGI [10]: 0.746 µM
- TGI [9]: 3.92 µM

Structure (SMILES): C[C@]12CCC(=O)C=C1CC[C@@H]1[C@@H]2C(=O)C[C@@]2(C)[C@H]1CC[C@]2(O)C(=O)CO
- TGI [1]: > 100 µM
- TGI [2]: > 100 µM
- TGI [3]: > 100 µM
- TGI [4]: > 100 µM
- TGI [7]: > 100 µM
- TGI [8]: > 100 µM
- TGI [10]: > 100 µM
- TGI [9]: > 100 µM

Structure (SMILES): COC(=O)c1ccc(C)cc1C1CN=NC12Cc1cc(C)c(C)cc1C2=O (stereo not given)
- TGI [1]: > 100 µM
- TGI [2]: > 100 µM
- TGI [3]: > 100 µM
- TGI [4]: > 100 µM
- TGI [7]: > 100 µM
- TGI [8]: > 100 µM
- TGI [10]: > 100 µM
- TGI [9]: > 100 µM

Structure (SMILES): Cc1nnc(N)nc1/C=C\c1cccs1
- TGI [1]: > 100 µM
- TGI [2]: 33.1 µM
- TGI [3]: > 100 µM
- TGI [4]: 49.7 µM
- TGI [5]: > 100 µM
- TGI [6]: 56.4 µM
- TGI [8]: 37.8 µM
- TGI [10]: 97.8 µM
- TGI [9]: > 100 µM

Structure (SMILES): O=C1C[C@H](c2ccccc2)C2(C(=O)c3ccccc3C2=O)[C@@H](c2ccccc2)C1
- TGI [1]: > 100 µM
- TGI [3]: > 100 µM
- TGI [4]: > 100 µM
- TGI [5]: > 100 µM
- TGI [6]: > 100 µM
- TGI [7]: > 100 µM
- TGI [10]: 90.9 µM

Structure (SMILES): O=C([C@H](O)[C@@H](O)c1ccc(Br)cc1)C12CC3CC(CC(C3)C1)C2
- TGI [1]: 47.1 µM
- TGI [2]: > 54.1 µM
- TGI [3]: 59.2 µM
- TGI [4]: 32.5 µM
- TGI [5]: > 29.3 µM
- TGI [6]: 24.5 µM
- TGI [7]: 32.4 µM
- TGI [8]: > 70.6 µM
- TGI [9]: 97 µM

Structure (SMILES): O=C(Nc1ccc2ccccc2c1)Nn1cnnc1
- TGI [1]: > 100 µM
- TGI [2]: > 100 µM
- TGI [3]: > 100 µM
- TGI [4]: > 100 µM
- TGI [5]: > 100 µM
- TGI [6]: > 100 µM
- TGI [7]: > 100 µM
- TGI [8]: > 100 µM
- TGI [10]: > 100 µM
- TGI [9]: > 100 µM

Structure (SMILES): CC1CCC2c3c([nH]c4ccccc34)C3C(=O)N(C4CCCCC4)C(=O)C3C2C1 (stereo not given)
- TGI [1]: 37.5 µM
- TGI [2]: 27.8 µM
- TGI [3]: 30.8 µM
- TGI [4]: 37.9 µM
- TGI [6]: > 100 µM
- TGI [7]: 39.8 µM
- TGI [8]: 29.8 µM
- TGI [10]: 44.9 µM
- TGI [9]: 50.3 µM

Structure (SMILES): Cc1cc2nc3n(c2cc1C)C(c1c(F)cccc1F)SC3 (stereo not given)
- TGI [1]: 54.2 µM
- TGI [2]: 40.6 µM
- TGI [3]: 60.3 µM
- TGI [5]: > 100 µM
- TGI [6]: > 100 µM
- TGI [7]: 91.2 µM
- TGI [8]: 56.2 µM
- TGI [9]: 42.4 µM

Structure (SMILES): CN(N)C(=O)NCCCl
- TGI [1]: > 100 µM
- TGI [2]: > 100 µM
- TGI [3]: > 100 µM
- TGI [4]: > 100 µM
- TGI [6]: > 100 µM
- TGI [7]: > 100 µM
- TGI [8]: > 100 µM
- TGI [10]: > 100 µM
- TGI [9]: > 100 µM
